Source: article PMC6358775, “Elucidation of Vasodilation Response and Structure Activity Relationships of N^2,N^4-Disubstituted Quinazoline 2,4-Diamines in a Rat Pulmonary Artery Model” (Molecules, 2019)
Values after ≈ are worked out from the molar mass of the structure shown. Where two headings read alike, the source gives them in different places.

What was measured:
[1] = tested on: endothelium-denuded rat pulmonary arterial rings; test: Vasorelaxation of PE pre-contracted endothelium-denuded (E−) pulmonary arterial rings, organ bath; conditions: for IC50: Table S3, endothelium-denuded, read-out: E- Vaso. pIC50 (converted); for EC50: endothelium-denuded (E−) rings pre-contracted with 10^-5 M PE, cumulative 0.0001–30 µM, mean (SEM), n = 6, read-out: Vaso E− EC50 µM (SEM); for Emax: maximal relaxation, endothelium-denuded rings, up to 30 µM, mean ± SEM
physchem = conditions: for solubility thermodynamic at 6 h: pH 7.4, aqueous buffer, thermodynamic from solid
Procedure: The solubility of the compounds under investigation here were assessed in phosphate buffer at pH 7.4 using the equilibrium shake-flask method.
An equilibrium shake-flask technique was used to determine the solubility of samples in PBS at pH 7.4. Approximately 1 mg of sample was placed in a 10 mL glass screw top vial and dissolved in 1 mL of 0.02 M PBS at pH 7.4. The solution was sonicated for 1 h, followed by shaking for 6 h (IKA HS 260). The saturated solution was then filtered using a nylon syringe filter. A standard solution of each sample was prepared by dissolving a weighed amount of the sample in 1 mL of DMSO. The concentration of sample dissolved in the PBS solution was determined by comparing the peak area of the PBS and DMSO standard using an Agilent 1100 series HPLC with a Sunshell C8 column (Chromanik Technologies Inc., Osaka, Japan). A 100 µL injection of the aqueous sample and 5 µL of DMSO solution (pre-diluted 100 fold using DMSO) were used.

A549 cells = test: MTT cytotoxicity assay in A549 cells; format: cell-based; conditions: Homo sapiens
Procedure: A 3-[4,5-dimehyl-2-thiazolyl]-2,5-diphenyl-2H-tetrazoliumbromide (MTT) assay was utilized to assess the concentration-response curves for quinazoline analogues as previously reported. A549 cells (ATCC CCL-185, human alveolar basal epithelial cell line) were used to account for the general cytotoxicity of compounds. Cells were cultured in DMEM medium containing fetal bovine serum (FBS; 10%), penicillin (10 U/mL), and streptomycin (100 U/mL). The temperature was maintained at 37 °C with 5% CO2. Cells were seeded for 16–18 h in DMEM and incubated for 72 h with the test compounds. After incubation, MTT (5 mg/mL in normal saline) was added with DMEM and incubated for 3 h. Careful decantation of the medium and addition of DMSO (50 µL) was done. Absorbance values were recorded at 570 nm after 5 min mechanical shaking of the microplate (Sunrise microplate reader, Tecan).
The activity was presented as the inhibitory concentration required to produce a 50% response (IC50). Prism 6.0 GraphPad Software Inc., (San Diego, CA, USA) was utilized for data fitting. 0.5% DMSO was used as the negative control.

[2] = tested on: endothelium-intact rat pulmonary arterial rings; test: Vasorelaxation of PE pre-contracted endothelium-intact (E+) pulmonary arterial rings, organ bath; conditions: for Emax / IC50 / EC50: Rattus norvegicus; for IC50: Table S3, endothelium-intact, read-out: E+ Vaso. pIC50 (converted); for EC50: endothelium-intact (E+) rings pre-contracted with 10^-5 M PE, cumulative 0.0001–30 µM, mean (SEM), n = 6, read-out: Vaso E+ EC50 µM (SEM)
[3] = tested on: PE-induced contraction of endothelium-denuded pulmonary arterial rings; test: Inhibition of phenylephrine (PE)-induced contraction in endothelium-denuded arterial rings; set-up: species or system rat; conditions: 10 µM compound, 15 min pre-incubation, E− rings; for inhibition at 10 µM: Rattus norvegicus, PE 0.0001–100 µM, n = 3–5, read-out: % PE-Contraction Inhibition (SEM); for maximal contraction induced by PE attenuated to: remaining contraction
Procedure: These experiments were undertaken to assess the pharmacological activity of quinazoline analogues against the structurally related α1 receptor blocker (prazosin). In contrast to previous vasorelaxant experiments, this protocol was developed to determine the inhibitory effect of pre-incubated (15 min) inhibitors (10 µM) on the concentration-dependent vasoconstriction induced by cumulative addition of PE (0.0001–100 µM) in endothelium-denuded pulmonary arterial rings. Figure 5 illustrates the real time contractile response shown by the pulmonary arterial ring upon cumulative addition of PE, which evoked a concentration-dependent vasoconstriction, increasing the vessel’s tension.
After anesthesia with thiopental sodium (100 mg/kg, i.p.) (Anesthal®, Jagsonpsal Pharmaceutical Ltd., Haryana, India), rats were euthanized by exsanguination. Lungs were carefully excised, cleaned by the removal of connective tissue, and placed in cold physiological Krebs’ solution composed of (mM): NaCl 122; KCl 5; N-[2-hydroxyethyl] piperazine-N′-[2-ethane-sulfonic acid] (HEPES) 10; KH2PO4 0.5; NaH2PO4 0.5; MgCl2 1; CaCl2 1.8; and glucose 11 adjusted to pH 7.3 using 1 M NaOH. The pulmonary artery was isolated from the lungs and cut into rings approximately 2 mm in length before mounting in the organ bath chambers. Endothelial cells were mechanically removed in some experiments by gentle rubbing of the inner surface with forceps. Pulmonary arterial rings were mounted on intraluminal wires via stainless steel hooks maintaining the resting tension at 1 g and rings were equilibrated for 30 min before obtaining a stable contraction with 10^−5 M phenylephrine (PE). The rings were immersed in 10 mL baths containing physiological Krebs’ solution at 37 °C, which was continuously bubbled with air. Force transducers were connected with intraluminal wires to measure isometric tension via a Mac Lab A/D converter (Chart V5, A.D. Instruments, Castle Hill, NSW, Australia). The functional integrity of the endothelium in the vessels was confirmed by vasorelaxation of ≥70% with sequential addition of 10^−5 M acetylcholine (ACh) to pre-contracted vessels with 10^−5 M PE. Relaxations ≤30% to 10^−5 M ACh in vessels rubbed mechanically were considered successfully endothelium denuded.
The protocol included the assessment of the inhibitory vasoconstriction effect of quinazoline test compounds on endothelium-denuded arterial rings. Briefly, the arterial rings were treated with the α1-receptor blocker (prazosin) or test compound at a concentration of 10 µM for 15 min before construction of the second concentration response curve with cumulative addition of PE (0.0001–100 µM). The same conditions were used to test the effects of the solvent (DMSO 0.2%). The results were obtained in percentages by comparison of the maximum contraction without treatment with the contraction in the presence of the test compound [24, 36, 37].

[4] = A549, MTT, 72 h incubation, read-out: A549 IC50, µM (S.D.)
[5] = Table S3, A549, read-out: Cytox. pIC50 (converted)
[6] = maximal relaxation, endothelium-intact rings, up to 30 µM, mean ± SEM

| SMILES | IC50 [1] | EC50 [1] | Emax [1] | Log Sol (physchem; 6 h, pH 7.4) | Sol. pH7.4 (µM) (physchem; 6 h, pH 7.4) | solubility thermodynamic at 6 h (physchem) | IC50 (A549 cells; [4]) | IC50 (A549 cells; [5]) | Emax [2, 6] | IC50 [2] | EC50 [2] | E+ Emax (%) [2, 6] | inhibition at 10 µM [3] | maximal contraction induced by PE attenuated to [3] | Sol. pH7.4 mg/mL (physchem; PBS pH 7.4, shake-flask) | Sol. pH7.4 (µM) (physchem; PBS pH 7.4, shake-flask, value in brackets) | solubility thermodynamic at 6 h (physchem; phosphate buffered saline (PBS)) |
| --- | --- | --- | --- | --- | --- | --- | --- | --- | --- | --- | --- | --- | --- | --- | --- | --- | --- |
| c1csc(CNc2nc(Nc3ccc(N4CCOCC4)cc3)nc3ccccc23)c1 [Compound 8] | 8.51 µM | 8.5 µM | 100% | -0.32 | 0.48 µM | 0.2 mg/mL (≈ 479 µM) | 11.4 µM | 11.5 µM | 98.8 ± 0.79% | 0.575 µM | 0.58 µM | 98.88 ± 0.79% | 42.4% | 56.38 ± 7.10% | – | – | – |
| NS(=O)(=O)c1ccc(Nc2nc(NCc3cccs3)c3ccccc3n2)cc1 [Compound 9] | 1.74 µM | 1.72 µM | 82.1 ± 8.43% | -0.80 | 0.16 µM | 0.06 mg/mL (≈ 146 µM) | 32.7 µM | 32.4 µM | 98.4 ± 1.4% | 1.02 µM | 1.03 µM | – | – | – | – | – | – |
| NC(=O)c1ccc(Nc2nc(NCc3cccs3)c3ccccc3n2)cc1 [Compound 10] | 5.13 µM | 5.15 µM | 90.4 ± 5.3% | 0.08 | 1.20 µM | 0.45 mg/mL (≈ 1200 µM) | 28.3 µM | 28.2 µM | 90.2 ± 6.48% | 1.45 µM | 1.46 µM | – | – | – | – | – | – |
| NS(=O)(=O)c1cccc(Nc2nc(NCc3cccs3)c3ccccc3n2)c1 [Compound 11] | 11 µM | 10.9 µM | 87.4 ± 4.66% | -0.47 | 0.34 µM | 0.14 mg/mL (≈ 340 µM) | 15 µM | 15.1 µM | 98.7 ± 1.26% | 2.29 µM | 2.28 µM | – | – | – | – | – | – |
| NC(=O)c1cccc(Nc2nc(NCc3cccs3)c3ccccc3n2)c1 [Compound 12] | 8.13 µM | 8.15 µM | 87.1 ± 3.63% | -0.25 | 0.56 µM | 0.21 mg/mL (≈ 559 µM) | 15.4 µM | 15.5 µM | 98.7 ± 1.31% | 4.17 µM | 4.15 µM | – | – | – | – | – | – |
| NS(=O)(=O)c1cccc(Nc2nc(NCc3ccco3)c3ccccc3n2)c1 [Compound 13] | 3.02 µM | 3.02 µM | 95.6 ± 2.75% | -0.42 | 0.38 µM | 0.15 mg/mL (≈ 379 µM) | 26.9 µM | 26.9 µM | 95.5 ± 2.17% | 6.61 µM | 6.61 µM | – | 45.9% | 54.07 ± 11.69% | – | – | – |
| CCCc1nn(C)c2c(=O)[nH]c(-c3cc(S(=O)(=O)N4CCN(C)CC4)ccc3OCC)nc12 [Sildenafil (SIL), Sildenafil, reference compound] | – | 0.89 µM | 85.8 ± 6.41% | – | – | – | – | – | 97.8 ± 2.19% | – | 0.14 µM | – | 58.3% | – | 20.83 mg/mL | 43.88 µM | 20.8 mg/mL (≈ 43900 µM) |
